Experimental data from publication PMC9854712 (Antioxidants, 2023).

Legend:
AChE [1] = assay: AChE inhibition quoted from the literature; format: biochemical; conditions: AChE IC50 ratio to 14a
AChE [2] = system: AChE; design: method as in PMID 25312723; conditions: cited from earlier work
HTB-54 cells = system: HTB-54 cells; design: method as in PMID 36257283; conditions: parent NSAIDs; cited from earlier work
MCF-7 cells = system: MCF-7 cells; design: method as in PMID 36257283; conditions: parent NSAIDs; cited from earlier work
HT-29 cells = conditions: parent NSAIDs; cited from earlier work

Row | Molecule | fold higher IC50 than compound 14a (AChE [1]) [fold] | IC50 (AChE [2]) [µM] | IC50 (HTB-54 cells) [µM] | IC50 (MCF-7 cells) [µM] | IC50 (HT-29 cells) [µM] | fold lower IC50 than compound 14a (AChE [1]) [fold]
1 | O=c1c2ccccc2[se]n1-c1ccccc1 [Ebselen, ebselen] | 32 | 29 |  |  |  | 
2 | COc1ccc2c(c1)c(CC(=O)O)c(C)n2C(=O)c1ccc(Cl)cc1 [Indomethacin, 2-[1-(4-chlorobenzoyl)-5-methoxy-2-methylindol-3-yl] acetic acid] |  |  | > 100 | > 100 | > 100 | 
3 | selenepezil |  | 0.097 |  |  |  | 9
